Measurements reported in US5482858A, “Polypeptide linkers for production of biosynthetic proteins” (priority 1993, dated 1996).

How the values were obtained:
[1] = system: 26-10 BABS (sFv), single chain biosynthetic antibody binding site VH-(Gly4-Ser)3-VL mimicking murine anti-digoxin monoclonal 26-10; assay: Specificity determination by radioimmunoassay (inhibition of 125I-digoxin binding), 26-10 BABS
Method: After the plates were washed and blocked with 1% horse serum in PBSA, solutions (50 μl) containing 26-10 Fab or the BABS in either PBSA or 0.01M sodium acetate at pH 5.5 were added to the wells and incubated 2-3 hrs at room temperature.

[2] = target: 26-10 BABS, single chain biosynthetic antibody binding site VH-(Gly4-Ser)3-VL mimicking murine anti-digoxin monoclonal 26-10; assay: Affinity determination by equilibrium binding of 3H-digoxin (immunoprecipitation), 26-10 BABS
Method: (§1) Association constants were measured by equilibrium binding studies. […] After 2-3 hrs of incubation at room temperature, the protein was precipitated by the addition of 100 μl goat antiserum to murine Fab fragment (ICN Immuno-Biologicals), 50 μl of the IgG fraction of rabbit anti-goat IgG (ICN ImmunoBiologicals), and 50 μl of a 10% suspension of protein A-Sepharose (Sigma). Following 2 hrs at 4° C., bound and free antigen were separated by vacuum filtration on glass fiber filters (Vacuum Filtration Manifold, Millipore, Bedford, Mass.). Filter disks were then counted in 5 ml of […] scintillation fluid with a Model 1500 Tri-Carb Liquid Scintillation Analyzer (Packard, Sterling, Va.). The Scatchard analyses of the untransformed radioligand binding data using LIGAND, a non-linear curve fitting program based on mass action. Ko s were also calculated by Sips plots and binding isotherms shown in FIG. 13A for the BABS and 13B for the Fab. […] These binding data are also plotted in linear form as Sips plots (inset), having the same abscissa as the binding isotherm but with the ordinate representing log r/(n-r), defined below.

[3] = target: anti-digoxin 26-10 Fab (murine monoclonal 26-10); assay: Affinity determination by equilibrium binding of 3H-digoxin (immunoprecipitation), 26-10 Fab
Method: as §1

[4] = target: IgG2a,k monoclonal antibody 26-10 (parent anti-digoxin antibody); conditions: cited from earlier work
[5] = normalizing glycoside Digoxigenin

Row | SMILES | normalized concentration of inhibitor giving 50% inhibition of 125I-digoxin binding [1, 5] | normalized concentration of inhibitor giving 50% inhibition of 125I-digoxin binding ([1]; normalizing glycoside Digoxin) | other results
1 | C[C@]12CC[C@H](O)C[C@H]1CC[C@@H]1[C@@H]2CC[C@]2(C)[C@@H](C3=CC(=O)OC3)CC[C@]12O [Digitoxigenin] | 0.4 | 2.6 | 
2 | C[C@]12CC[C@H](O)C[C@H]1CC[C@@H]1[C@@H]2C[C@@H](O)[C@]2(C)[C@@H](C3=CC(=O)OC3)CC[C@]12O [Digoxigenin] | 1.0 | 7.3 | 
3 | C[C@H]1O[C@@H](O[C@H]2[C@@H](O)C[C@H](O[C@H]3[C@@H](O)C[C@H](O[C@H]4CC[C@@]5(C)[C@H](CC[C@@H]6[C@@H]5CC[C@]5(C)[C@@H](C7=CC(=O)OC7)CC[C@]65O)C4)O[C@@H]3C)O[C@@H]2C)C[C@H](O)[C@@H]1O [Digitoxin] | 0.3 | 2.0 | 
4 | CC(=O)OC1CCC2(C=O)C3CCC4(C)C(C5=CC(=O)OC5)CCC4(O)C3CCC2(O)C1 (stereo not shown) [Acetyl Strophanthidin] | 0.8 | 5.9 | 
5 | C[C@H]1O[C@@H](O[C@H]2[C@@H](O)C[C@H](O[C@H]3[C@@H](O)C[C@H](O[C@H]4CC[C@@]5(C)[C@H](CC[C@@H]6[C@@H]5C[C@@H](O)[C@]5(C)[C@@H](C7=CC(=O)OC7)CC[C@]65O)C4)O[C@@H]3C)O[C@@H]2C)C[C@H](O)[C@@H]1O [Digoxin] |  |  | Association Constant, Ko (BABS) ([2]; Binding isotherm): 5.2e+07 M⁻¹; Association Constant, Ko (BABS) ([2]; Scatchard plot): (3.2 ± 0.9) × 10^7 M^-1; Association Constant, Ko (BABS) ([2]; Sips plot): 2.6e+07 M⁻¹; Association Constant, Ko (Fab) ([3]; Binding isotherm): 3.3e+08 M⁻¹; Association Constant, Ko (Fab) ([3]; Scatchard plot): (1.9 ± 0.2) × 10^8 M^-1; Association Constant, Ko (Fab) ([3]; Sips plot): 1.8e+08 M⁻¹; Kd [4]: 185 pM
6 | C[C@H]1O[C@@H](O[C@H]2[C@@H](O)C[C@H](O[C@H]3[C@@H](O)C[C@H](O[C@H]4CC[C@@]5(C)[C@H](CC[C@@H]6[C@@H]5CC[C@]5(C)[C@@H](C7=CC(=O)OC7)[C@@H](O)C[C@]65O)C4)O[C@@H]3C)O[C@@H]2C)C[C@H](O)[C@@H]1O [Gitoxin] | 8.5 | 62 | 
7 | C[C@@H]1O[C@@H](O[C@H]2C[C@@H](O)[C@]3(CO)[C@H]4[C@H](O)C[C@]5(C)[C@@H](C6=CC(=O)OC6)CC[C@]5(O)[C@@H]4CC[C@]3(O)C2)[C@H](O)[C@H](O)[C@H]1O [Ouabain] | 21 | 150 | 
